# Data taken from US20140356293A1, “FLUORESCENT COMPOSITIONS WITH ENHANCED FLUORESCENCE AND METHODS BASED THEREON” (The Research Foundation of the State University o New York, priority 2012, published 2014).
# “And” between values parts separate entries of the source, which are not always exact repeats. Identical values can stand only once. Like-named read-outs stand apart in the source and are kept apart here.
# Legend:
# [1] = Relative fluorescence intensity of ICG formulations in Petri dishes, NIRF imaging system; assay type: physicochemical; conditions: for maximum fluorescent intensity: 5 μg/ml ICG
# Description: Real-time near-infrared fluorescent (NIRF) imaging was accomplished using a NIRF imaging system. The ring light was coupled to a tungsten halogen source filtered with a Chroma excitation filter (775 nm). The Navitar Zoom 7000 lens was fitted with a Chroma emission filter (845 nm). Images were captured with a Qimaging Retiga camera. Petri dishes (35 mm diameter) were positioned in the imaging system that contained 2 ml of a sample of an enhanced fluorescent composition comprising ICG. This system was used in the investigations of ICG fluorescence enhancement described in this example. Excitation light was delivered to the field of interest using a fiber optic ring light coupled to a tungsten halogen source (Illumination Technologies, Inc. IT 9596-ER) filtered with a 775 nm bandpass filter (Chroma Technologies). A Navitar Zoom 7000 Lens was fitted on a Qimaging Retiga EXi cooled CCD camera.
# Indocyanine Green (ICG) stock solutions were prepared by adding 10 ml of diluent to a 25 mg vial of IC Green (Akorn Incorporated). Diluents were water (supplied by the manufacturer), ethanol, or dimethyl sulfoxide (DMSO).
# Milk solutions were prepared by dissolving Instant Nonfat Dry Milk (Nestle Carnation) in water at various concentrations up to 30% weight to volume
# To prepare ICG-based enhanced fluorescent compositions, ICG stock solutions were added to achieve concentrations up to 250 μg/ml. Relative fluorescence intensity of various formulations was measured in 35 mm circular Petri dishes containing 2 ml. A floating toothpick provided a focusing target.
# Intralipid formulations were prepared from Intralipid 20% (Fresenius Kabi), which is a sterile non-pyrogenic fat emulsion prepared for intravenous administration for parenteral nutrition. Intralipid is also a vehicle for intravenous (i.v.) delivery of propofol, and is used as an antidote for acute local anesthetic toxicity. It is a white opaque liquid containing 20% soy bean oil, egg phospholipids, glycerin, and water. ICG stock solutions were added to achieve a range of concentrations of ICG up to 250 μg/ml in the enhanced fluorescent composition.
# Stock aqueous ICG solution was diluted into 10, 20, and 30% milk to achieve 1, 5, 10, and 20 μg/ml final concentrations. Fluorescent images of 2 ml of each preparation in 35 mm Petri dishes were acquired using QCapture and quantified using ImageJ.
# […] […] The ICG in DMSO (“ICG/DMSO”) stock solution was diluted into Enfamil and fluorescence intensity measured.
# Intralipid is milk-like in its appearance and the major ingredient is 20% soy bean oil. Because Intralipid is approved for human intravenous use, a series of diluted solutions was prepared from the ICG/DMSO stock solution.
# In the work summarized in FIG. 9, solutions of ICG were prepared in DMSO, water, or ethanol at 2.5 mg/ml and then diluted to the indicated concentrations across the top of the figure in the diluents listed down the left side. The DMSO and ethanol diluents were diluted with water. Two ml of each solution was transferred to a Petri dish and imaged as described herein in an NIRF imaging system. […] Also imaged were the same ICG concentrations in 5% ethanol and water. […] The use of ethanol and DMSO in pharmaceuticals is limited by the toxicity of these compounds.
# [2] = Stability of ICG fluorescence (storage of stock solutions; constant illumination); assay type: physicochemical
# Description: A vial of ICG containing 2.5 mg of ICG was dissolved into 10 ml of DMSO. […] Aqueous solutions fade rapidly. The ICG in DMSO (“ICG/DMSO”) stock solution was diluted into Enfamil and fluorescence intensity measured. […] The DMSO concentration at the peak fluorescence was 0.3%. Thus enhancement of fluorescence intensity was similar to that observed with use of reconstituted nonfat dry milk.
# With respect to FIG. 12, a solution of ICG in Enfamil (8 μg/ml) in a Petri dish was positioned in the imaging system. With constant illumination the fluorescence image was captured every 10 seconds for 22 minutes.
# [3] = Aqueous ICG preparation used to image the urinary tract of rats; assay type: physicochemical; conditions: aqueous solution 2.5 mg/ml diluted
# Description: ICG used to image the urinary tract of rats was prepared according to package insert instructions (aqueous solution 2.5 mg/ml) and diluted to 10 μg/ml to achieve peak fluorescence. It was observed that the fluorescence of these preparations was not as intense as that achieved when ICG was injected intravenously and diluted into the blood.
# [4] = cited from earlier work
# [5] = in vivo; cited from earlier work
smiles,measurement,setting,value
"CC1(C)C(/C=C/C=C/C=C/C=C2\N(CCCCS(=O)(=O)O)c3ccc4ccccc4c3C2(C)C)=[N+](CCCCS(=O)(=O)[O-])c2ccc3ccccc3c21 [ICG, Indocyanine green]",maximum fluorescent intensity,"[1]; 10% milk, arbitrary units of integrated density",about 950000 IntDen
same,maximum fluorescent intensity,[1]; 20% milk,about 1000000 IntDen
same,maximum fluorescent intensity,[1]; 30% milk,about 1150000 IntDen
same,Dependence of fluorescence on milk concentration,"[1]; 10, 20, 30% milk",increased with milk concentration
same,Fluorescence intensity versus ICG concentration,"[1]; 25% DMSO in water, FIG. 9",increased from 1 to 100 μg/ml
same,ICG concentration at which imaging system was fully saturated,"[1]; 100% DMSO, FIG. 9",12.5 µg/mL
same,Fluorescence intensity versus ICG concentration,"[1]; 100% ethanol, FIG. 9",lower than in DMSO but increased up to 100 μg/ml
same,ICG concentration at peak fluorescence,"[1]; ICG in DMSO diluted into Enfamil, Example 2, FIG. 10",around 8 μg/ml
same,ICG concentration at peak fluorescence,"[1]; ICG in DMSO diluted into Intralipid, exposure time reduced from 90 to 70 ms, Example 2, FIG. 10",8 µg/mL
same,ICG concentration at peak fluorescence,"[1]; ICG/DMSO stock (2.5 mg/ml) diluted into Enfamil, final DMSO 0.3%, Example 1, FIG. 5",7.8 µg/mL
same,ICG concentration at peak fluorescence,"[1]; aqueous ICG stock diluted into 10, 20 and 30% reconstituted nonfat dry milk, 1, 5, 10, 20 μg/ml tested",5 µg/mL
same,ICG concentration at which quenching occurred,"[1]; in 10, 20 and 30% reconstituted dry milk",≥ 10 µg/mL
same,ICG concentration at which fluorescence decreased (quenched),"[1]; in Enfamil, FIG. 9",50 µg/mL and 100 µg/mL
same,Fluorescence of ICG diluted into water or saline,[1]; same imaging conditions as milk preparations,no detectable fluorescence
same,Persistence of fluorescence of aqueous solutions,[2],fade rapidly
same,ICG concentration to achieve peak fluorescence,[3],10 µg/mL
same,Maximum fluorescence wavelength,[4]; in blood,approximately 830 nm
same,maximum absorption,[4]; in plasma at low concentrations,~800 nm
same,Maximum fluorescence wavelength,[4]; in water,approximately 810 nm
same,Route of excretion,[5],excreted exclusively in the bile
